Source: patent US5438052A, “Cephalosporin derivatives” (Hoffmann-La Roche Inc., priority 1991, dated 1995)
Values after ≈ are worked out from the molar mass of the structure shown. Structures can show the parent of a compound that is named as a salt. Where two headings read alike, the source gives them in different places.

How the values were obtained:
C. freundii 902 = experiment: Minimum inhibitory concentration in vitro, agar dilution method; assay type: cell-based; settings: Citrobacter freundii
From the text: (§1) 1. Minimum Inhibitory Concentration in vitro
(§2) The activities ascertained, minimum inhibitory concentration (MIC) in μg/ml, are compiled in Table 1 hereinafter: […]

E. aerogenes CF153 = experiment: as above; assay type: cell-based; settings: Klebsiella aerogenes
From the text: as §1, §2

E. cloacae 908R = experiment: as above; assay type: cell-based; settings: Enterobacter cloacae
From the text: as §1, §2

E. cloacae 908SSi = experiment: as above; assay type: cell-based; settings: Enterobacter cloacae
From the text: as §1, §2

E. cloacae P99 = experiment: as above; assay type: cell-based; settings: Enterobacter cloacae
From the text: as §1, §2

E. coli 25922 [1] = experiment: as above; assay type: cell-based; settings: Escherichia coli
From the text: as §1, §2

K. oxytoca 1082 = experiment: as above; assay type: cell-based; settings: Klebsiella oxytoca
From the text: as §1, §2

K. pneumoniae 418 = experiment: as above; assay type: cell-based; settings: Klebsiella pneumoniae
From the text: as §1, §2

P. aeruginosa 27853 = experiment: as above; assay type: cell-based; settings: Pseudomonas aeruginosa
From the text: as §1, §2

P. aeruginosa 799/61 = experiment: as above; assay type: cell-based; settings: Pseudomonas aeruginosa
From the text: as §1, §2

P. aeruginosa 799/WT = experiment: as above; assay type: cell-based; settings: Pseudomonas aeruginosa
From the text: as §1, §2

P. aeruginosa BA = experiment: as above; assay type: cell-based; settings: Pseudomonas aeruginosa
From the text: as §1, §2

P. aeruginosa MK1184 = experiment: as above; assay type: cell-based; settings: Pseudomonas aeruginosa
From the text: as §1, §2

P. mirabilis 2117 = experiment: as above; assay type: cell-based; settings: Proteus mirabilis
From the text: as §1, §2

P. vulgaris 1028 = experiment: as above; assay type: cell-based; settings: Proteus vulgaris
From the text: as §1, §2

S. aureus 6538 = experiment: as above; assay type: cell-based; settings: Staphylococcus aureus
From the text: as §1, §2

S. marcescens 69438 = experiment: as above; assay type: cell-based; settings: Serratia marcescens
From the text: as §1, §2

S. pyogenes 15 = experiment: as above; assay type: cell-based; settings: Streptococcus pyogenes
From the text: as §1, §2

E. coli 25922 [2] = experiment: Experimental systemic septicaemia in the mouse; assay type: in vivo; settings: 96 h
Description: (§3) 2. Experimental systemic septicaemia in the mouse
(§4) An experimental systemic septicaemia was produced in albino mice weighing 16-20 g by intraperitoneally injecting into the experimental animals a sample of a dilute culture of the test organism which had been grown overnight. The sample administered is calculated such that the dosage administered is about 5-100 times greater than the dosage which is required to kill 50% of untreated experimental animals within 48 hours. The bacteria were injected as a suspension in the culture broth. Groups of 5 experimental animals each were used not only for the control, but also for the treatment for each dosage tested. The products in accordance with the invention were administered subcutaneously as a suspension in Tween 80 (2%), whereby the concentrations were chosen such that each experimental animal received 500 μl per administration. The respective concentrations were administered twice, namely 1 and 3 hours after the infection (in the case of P. aeruginosa three times, namely 1, 3 and 5 hours after the infection). The ED50 is that dosage which protects 50% of the experimental animals and was calculated by means of the Probit method on the basis of the survial rate after 4 days following the infection. The ED50 values in mg/kg s.c. (subcutaneous) for representatives of the class of substance in accordance with the invention are given in Table 2 hereinafter.

[3] = test system: Pseudomonas aeruginosa BA; experiment: Experimental systemic septicaemia in the mouse; assay type: in vivo; settings: sc, 96 h
Description: as §3, §4

[4] = C. freundii 902, agar dilution, read-out: MIC
[5] = E. aerogenes CF153, agar dilution, read-out: MIC
[6] = E. cloacae 908R, agar dilution, read-out: MIC
[7] = E. cloacae 908SSi, agar dilution, read-out: MIC
[8] = E. coli 25922, agar dilution, read-out: MIC
[9] = K. oxytoca 1082, agar dilution, read-out: MIC
[10] = K. pneumoniae 418, agar dilution, read-out: MIC
[11] = P. aeruginosa 27853, agar dilution, read-out: MIC
[12] = P. aeruginosa 799/61, agar dilution, read-out: MIC
[13] = P. aeruginosa 799/WT, agar dilution, read-out: MIC
[14] = P. aeruginosa BA, agar dilution, read-out: MIC
[15] = P. aeruginosa MK1184, agar dilution, read-out: MIC
[16] = P. mirabilis 2117, agar dilution, read-out: MIC
[17] = P. vulgaris 1028, agar dilution, read-out: MIC
[18] = S. aureus 6538, agar dilution, read-out: MIC
[19] = S. marcescens 69438, agar dilution, read-out: MIC
[20] = S. pyogenes 15, agar dilution, read-out: MIC
[21] = Escherichia coli, sc, E. coli 25922, albino mice, s.c. 1 and 3 hours after infection, survival after 4 days, read-out: ED50

| Compound | MIC (E. cloacae P99) | MIC (C. freundii 902; [4]) | MIC (E. aerogenes CF153; [5]) | MIC (E. cloacae 908R; [6]) | MIC (E. cloacae 908SSi; [7]) | MIC (E. coli 25922 [1]; [8]) | MIC (K. oxytoca 1082; [9]) | MIC (K. pneumoniae 418; [10]) | MIC (P. aeruginosa 27853; [11]) | MIC (P. aeruginosa 799/61; [12]) | MIC (P. aeruginosa 799/WT; [13]) | MIC (P. aeruginosa BA; [14]) | MIC (P. aeruginosa MK1184; [15]) | MIC (P. mirabilis 2117; [16]) | MIC (P. vulgaris 1028; [17]) | MIC (S. aureus 6538; [18]) | MIC (S. marcescens 69438; [19]) | MIC (S. pyogenes 15; [20]) | ED50 (E. coli 25922 [2]; [21]) | other results |
| --- | --- | --- | --- | --- | --- | --- | --- | --- | --- | --- | --- | --- | --- | --- | --- | --- | --- | --- | --- | --- |
| Cc1cc(SCC2=C(C(=O)[O-])N3C(=O)[C@@H](NC(=O)/C(=N\OCc4nc(=O)c(O)c[nH]4)c4csc(N)n4)[C@H]3SC2)n2nc(COC(=O)c3ccc(O)c(O)c3)nc2n1.[Na+] [Example 6, (6R,7R)-7-[(Z)-2-(2-amino-4-thiazolyl)-2-[[(1,4-dihydro-5-hydroxy-4-oxo-2-pyrimidinyl)methoxy]imino]acetamido]-3-[[[2-[[(3,4-dihydroxybenzoyl)oxy]methyl]-5-methyl-s-triazolo[1,5-a]pyrimidin-7-yl]thio]methyl]-8-oxo-5-thia-1-azabicyclo[4.2.0]oct-2-ene-2-carboxylic acid sodium salt (1:1)] | 4 µg/mL |  |  |  |  |  |  |  |  |  |  |  |  |  |  |  |  |  |  | MIC (C. freundii 902; 902): < 0.1 µg/mL; MIC (E. aerogenes CF153; CF153): < 0.1 µg/mL; MIC (E. cloacae 908R; 908R): 0.12 µg/mL; MIC (E. cloacae 908SSi; 908SSI): 4 µg/mL; MIC (E. coli 25922 [1]; 25922): < 0.1 µg/mL; MIC (K. oxytoca 1082; 1082): 0.12 µg/mL; MIC (K. pneumoniae 418; 418): < 0.1 µg/mL; MIC (P. aeruginosa 27853; 27853): < 0.1 µg/mL; MIC (P. aeruginosa 799/61; 799/61): < 0.1 µg/mL; MIC (P. aeruginosa 799/WT; 799/WT): < 0.1 µg/mL; MIC (P. aeruginosa BA): < 0.1 µg/mL; MIC (P. aeruginosa MK1184; MK1184): < 0.1 µg/mL; MIC (P. mirabilis 2117; 2117): 0.25 µg/mL; MIC (P. vulgaris 1028; 1028): < 0.1 µg/mL; MIC (S. aureus 6538; 6538): 16 µg/mL; MIC (S. marcescens 69438; 69438): 0.12 µg/mL; MIC (S. pyogenes 15; 15): 2 µg/mL; ED50 (E. coli 25922 [2]; Escherichia coli, 25922, sc): < 0.2 mg/kg; ED50 [3]: 0.3 mg/kg |
| Nc1nc(/C(=N/OCc2ccc(O)c(O)c2F)C(=O)N[C@@H]2C(=O)N3C(C(=O)O)=C(CSc4nc(-c5ccccc5)ncc4-c4ccc(O)c(O)c4)CS[C@H]23)cs1 [Example 15] | 16 µg/mL (≈ 19.6 µM) | 0.25 µg/mL (≈ 0.306 µM) | 0.12 µg/mL (≈ 0.147 µM) | 2 µg/mL (≈ 2.45 µM) | 16 µg/mL (≈ 19.6 µM) | < 0.1 µg/mL | 0.5 µg/mL (≈ 0.611 µM) | < 0.1 µg/mL | 1 µg/mL (≈ 1.22 µM) | < 0.1 µg/mL | 0.5 µg/mL (≈ 0.611 µM) | 0.5 µg/mL (≈ 0.611 µM) | 32 µg/mL (≈ 39.1 µM) | 0.12 µg/mL (≈ 0.147 µM) | 0.5 µg/mL (≈ 0.611 µM) | 32 µg/mL (≈ 39.1 µM) | 1 µg/mL (≈ 1.22 µM) | 0.12 µg/mL (≈ 0.147 µM) | 0.9 mg/kg | ED50 ([3]; P. aeruginosa BA, albino mice, s.c. 1, 3 and 5 hours after infection, survival after 4 days, read-out: ED50): > 2 mg/kg |
| Cc1cc(SCC2=C(C(=O)O)N3C(=O)[C@@H](NC(=O)/C(=N\OCc4nc(=O)c(O)c[nH]4)c4csc(N)n4)[C@H]3SC2)n2nc(CNS(=O)(=O)c3ccc(O)c(O)c3)nc2n1 [Example 2, (6R,7R)-7-[(Z)-2-(2-amino-4-thiazolyl)-2-[[(1,4-dihydro-5-hydroxy-4-oxo-2-pyrimidinyl)methoxy]imino]acetamido]-3-[[[2-[(3,4-dihydroxybenzenesulphonamido)methyl]-5-methyl-s-triazolo[1,5-a]pyrimidinyl-7-yl]thio]methyl]-8-oxo-5-thia-1-azabicyclo[4.2.0]oct-2-ene-2-carboxylic acid sodium salt (1:1)] | 16 µg/mL | < 0.1 µg/mL | 0.5 µg/mL | 1 µg/mL | 4 µg/mL | < 0.1 µg/mL | 4 µg/mL | < 0.25 µg/mL | < 0.1 µg/mL | < 0.1 µg/mL | 0.12 µg/mL | < 0.1 µg/mL | 0.25 µg/mL | 0.25 µg/mL | 0.5 µg/mL | 32 µg/mL | < 0.25 µg/mL | 2 µg/mL | 0.3 mg/kg |  |
| Nc1nc(/C(=N/OCc2cc(Cl)c(O)c(O)c2Cl)C(=O)N[C@@H]2C(=O)N3C(C(=O)O)=C(CSc4nc(-c5ccccc5)ncc4-c4ccc(O)c(O)c4)CS[C@H]23)cs1 [Example 18, (6R,7R)-7-[(Z)-2-(2-amino-4-thiazolyl)-2-[[(2,5-dichloro-3,4-dihydroxybenzyl)oxy]imino]acetamido]-3-[[[5-(3,4-dihydroxyphenyl)-2-phenyl-4-pyrimidinyl]thio]methyl]-8-oxo-5-thia-1-azabicyclo[4.2.0]oct-2-ene-2-carboxylic acid] | 16 µg/mL (≈ 18.4 µM) | 0.12 µg/mL (≈ 0.138 µM) | 0.12 µg/mL (≈ 0.138 µM) | 2 µg/mL (≈ 2.3 µM) | 8 µg/mL (≈ 9.21 µM) | 0.12 µg/mL (≈ 0.138 µM) | 0.25 µg/mL (≈ 0.288 µM) | 0.12 µg/mL (≈ 0.138 µM) | 2 µg/mL (≈ 2.3 µM) | < 0.1 µg/mL | 0.12 µg/mL (≈ 0.138 µM) | 1 µg/mL (≈ 1.15 µM) | 2 µg/mL (≈ 2.3 µM) | < 0.1 µg/mL | 0.12 µg/mL (≈ 0.138 µM) | > 32 µg/mL | 1 µg/mL (≈ 1.15 µM) | 1 µg/mL (≈ 1.15 µM) |  |  |
